Results: patent US20230346820A1, “METHODS AND COMPOSITIONS FOR THE TREATMENT OF SARS-COV-2” (priority 2020, published 2023)
Read-outs that look alike come from different tables or passages of the source.

Experiments:
[1] = tested on: SARS-CoV-2; experiment: microbe, parasite or virus in culture; settings: Severe acute respiratory syndrome coronavirus 2, HeLa-ACE2, 24 h, read-out: CoV-2 EC50 [μM] (Geomeans, n ≥ 2)
[2] = tested on: SARS-CoV-2
[3] = in vitro; settings: human
[4] = tested on: HeLa-ACE2 cells; experiment: cells; type: cell-based, human
[5] = CC50 [μM] (Geomeans, n ≥ 2 except where indicated: *n = 1)
[6] = Homo sapiens, HeLa-ACE2, read-out: HeLa-ACE-2 EC50 [μM] (Geomeans, n ≥ 2)

Row | Compound | EC50 [1] [µM] | HeLa-ACE2 CC50/CoV-2 EC50 [2] | CC50 [3, 5] [µM] | EC50 [4, 6] [µM] | EC50 ([2]; read-out: CoV-2 EC50 [μM] (Geomeans, n ≥ 2), Table 1, HeLa-ACE2, 24 h) [µM] | EC50 ([4]; read-out: HeLa-ACE-2 EC50 [μM] (Geomeans, n ≥ 2)) [µM] | CC50 ([3]; HeLa-ACE2 CC50) [µM] | EC50 ([4]; Homo sapiens, HeLa-ACE2, read-out: EC50 (total cell numbers per well, toxicity in context of infection)) [µM]
1 | CCNCc1cc(Nc2ccnc3cc(Cl)ccc23)ccc1O | 1.22 | >16.69 | > 20.4 | > 9.59 |  |  |  | 
2 | CC(C)(/C=N/OCC(=O)O)Cc1c(SC(C)(C)C)c2cc(OCc3ccc4ccccc4n3)ccc2n1Cc1ccc(Cl)cc1 [A 81834] | > 7.47 | >3.02 | > 22.6 | > 9.59 |  |  |  | 
3 | C[C@@H]1CCCN1CCc1cc2cc(-c3ccc(C#N)cc3)ccc2o1 [ABT-239] | > 3.33 | 11.18 | > 37.2 | > 7.49 |  |  |  | 
4 | CC1=C(c2ccc(O)cc2)[C@H](c2ccc(OCCN3CCCCC3)cc2)Oc2cc(O)ccc21 [ACOLBIFENE] | 4.79 | 2.8 | 13.4 | > 9.59 |  |  |  | 
5 | COc1cc(C(C)=O)ccc1OCCCN1CCC(C(O)(c2ccc(F)cc2)c2ccc(F)cc2)CC1 [AHR-5333] | > 4.53 | 5.44 | > 24.7 | > 7.1 |  |  |  | 
6 | NC1(C(=O)N[C@@H](CCO)c2ccc(Cl)cc2)CCN(c2nc[nH]c3nccc2-3)CC1 [AZD-5363] |  |  |  |  | > 4.63 | > 3.39 |  | 
7 | CN1CCN(C2=Cc3cc(Cl)ccc3/C(=C\C#N)c3ccccc32)CC1 [Alkene Stereoisomer analog of Rilapine] | 2.99 | >13.32 | > 39.8 | > 9.59 |  |  |  | 
8 | CCOC(=O)c1c(CSc2ccccc2)n(C)c2cc(Br)c(O)c(CN(C)C)c12 [Arbidol] | > 5.97 | 4.88 | > 29.1 | > 9.34 |  |  |  | 
9 | CCCN1CCN(c2ccc(C(=O)NC3(C(=O)NCC#N)CCCCC3)cc2)CC1 [Balicatib] | 5.11 | >7.79 | > 39.8 | > 9.59 |  |  |  | 
10 | CC(C)(C)NC(=O)N[C@H](C(=O)N1C[C@H]2[C@@H]([C@H]1C(=O)NC(CC1CCC1)C(=O)C(N)=O)C2(C)C)C(C)(C)C (some centres unmarked) [Boceprevir] | > 9.34 | 4.27 | > 39.8 | > 7.08 |  |  |  | 
11 | Oc1ccc(CCN2CCC(Nc3nc4ccccc4n3Cc3ccc(F)cc3)CC2)cc1 [DESMETHYLASTEMIZOLE] | 2.38 | 6.81 | 16.2 | > 9.59 |  |  |  | 
12 | O=c1c2ccccc2[se]n1-c1ccccc1 [Ebselen] | > 8.5 | 3.13 | > 26.6 | 6.02 |  |  |  | 
13 | c1cn2cc(-c3ccc4c(c3)nc3n4CCN4CCCCC4C3)ccc2n1 (centres unmarked) [Integrity ID 725781] | > 9.04 | 4.41 | > 39.8 | > 9.59 |  |  |  | 
14 | COCC12CN(S(=O)(=O)c3ccc4cc(Cl)ccc4c3)CC(=O)N1CC1(CCN(c3ccncc3)CC1)O2 (centres unmarked) [M-55532] | 2.77 | 6.81 | 18.9 | > 6.45 |  |  |  | 
15 | C=CC(=O)Nc1cc2c(Nc3ccc(F)c(Cl)c3)ncnc2cc1C#CC(C)(C)N1CCN(C)CC1 [MP-412] | 0.761 | 4.18 | 3.18 | 1.25 |  |  |  | 
16 | c1ccc2c(c1)Sc1ccccc1N2CC1CN2CCC1CC2 (centres unmarked) [Mequitazine] | 2.53 | 6.83 | 17.3 | > 9.59 |  |  |  | 
17 | C=C(C)[C@@H]1CC[C@]2(C(=O)OCC(N)(CO)CO)CC[C@]3(C)[C@H](CC[C@@H]4[C@@]5(C)CC[C@H](OC(C)=O)C(C)(C)[C@@H]5CC[C@]43C)[C@@H]12 [NVX-207] | 1.87 | 4.37 | 8.19 | 5.88 |  |  |  | 
18 | CC[C@@H](C(=O)O)[C@@H]1O[C@@H]([C@@H](C)[C@H](O)[C@H](C)C(=O)[C@H](CC)[C@H]2O[C@]3(C=C[C@@H](O)[C@]4(CC[C@@](C)([C@H]5CC[C@](O)(CC)[C@H](C)O5)O4)O3)[C@H](C)C[C@@H]2C)[C@@H](C)C[C@@H]1C [Narasin] | 1.5 | 2.31 | 3.47 | 5.99 |  |  |  | 
19 | CN1CCN(C2Cc3cc(Cl)ccc3Sc3ccccc32)CC1 (centres unmarked) [OCTOCLOTHEPIN analog] | 2.49 | >11.42 | > 28.4 | > 8.73 |  |  |  | 
20 | Cc1ccc(C(=O)Nc2ccc(CN3CCN(C)CC3)c(C(F)(F)F)c2)cc1C#Cc1cnc2cccnn12 [Ponatinib] | 1.61 |  |  | 1.25 |  |  |  | 
21 | CCOc1cc(C(C)(C)C)ccc1C1=N[C@@](C)(c2ccc(Cl)cc2)[C@@](C)(c2ccc(Cl)cc2)N1C(=O)N1CCN(CCCS(C)(=O)=O)CC1 [R-7112] | 3.23 | >4.61 | > 14.9 | > 9.6 |  |  |  | 
22 | Cc1cccc(C)c1NC(=O)CN1CCN([C@@H]2CCN(C(=O)c3cc(C(F)(F)F)cc(C(F)(F)F)c3)[C@@H](Cc3ccccc3)C2)CC1 [R-116301] | 6.83 | 3.73 | 25.5 | > 9.59 |  |  |  | 
23 | CN(C)CCC(Oc1ccc2c(c1)C(=O)CC(c1ccccc1)O2)c1ccccc1 (centres unmarked) [RFM-007-454-4] | 3.83 | >6.13 | > 23.5 | > 9.59 |  |  |  | 
24 | CNCc1ccc(OC)c([C@]2(N3CCC[C@H]3c3ncco3)C(=O)N(S(=O)(=O)c3ccc(OC)cc3)c3ccc(Cl)cc32)c1 [RFM-011-200-5] | 1.93 | >4.37 | > 8.46 | 4.24 |  |  |  | 
25 | Cc1ccc(C(=O)Nc2cccc(C(F)(F)F)c2)cc1NC(=O)c1cccc2c(N)nccc12 [RFM-011-761-3] | 6.31 | >3.37 | > 21.2 | > 9.06 |  |  |  | 
26 | COc1cc(C[C@H]2c3cc(OC)c(OC)cc3CCN2C)c(Oc2cc3c(cc2OC)-c2c(OC)c(OC)cc4c2[C@H](C3)N(C)CC4)cc1OC [Thalicarpine] |  | >45.67 | > 26.6 | > 9.6 |  |  |  | 
27 | COc1ccc(C[C@H](N)C(=O)N[C@H]2[C@@H](O)[C@H](n3cnc4c(N(C)C)ncnc43)O[C@@H]2CO)cc1 [puromycin] |  |  |  |  |  |  | 2.45 ± 0.23 | 0.547 ± 0.027
